Results as given in patent publication US12202835B2, “Substituted aromatic ring-linked dioxinoquinazolines and dioxinoquinolines as kinase inhibitors” (BEIJING SCITECH-MQ PHARMACEUTICALS LIMITED, priority 2018, dated 2025).

Key:
c-MET kinase = c-MET kinase (Homo sapiens (Human), UniProt P08581); test: Assay of small molecular compounds for inhibiting the activity of c-MET kinase (LANCE TR-FRET); format: biochemical; conditions: read-out: CMET IC50
Outline: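 Eleven final concentrations from 2500 nM down to 0.042 nM, in 4% DMSO, were tested against human c-MET (2× stock 2 nM), with compound and enzyme premixed for 5 min. The phosphorylation reaction used 4× stock of 400 nM ULight-JAK-1 peptide and 40 μM ATP for 60 min at room temperature, then stop and detection steps. TR-FRET percent inhibition against positive and negative controls gave the IC50.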

TRKA kinase = TRKA kinase (Homo sapiens (Human), UniProt P04629); test: Assay of small molecular compounds for inhibiting the activity of TRKA kinase (LANCE TR-FRET); format: biochemical
Sequence of TRKA kinase (P04629 33-796): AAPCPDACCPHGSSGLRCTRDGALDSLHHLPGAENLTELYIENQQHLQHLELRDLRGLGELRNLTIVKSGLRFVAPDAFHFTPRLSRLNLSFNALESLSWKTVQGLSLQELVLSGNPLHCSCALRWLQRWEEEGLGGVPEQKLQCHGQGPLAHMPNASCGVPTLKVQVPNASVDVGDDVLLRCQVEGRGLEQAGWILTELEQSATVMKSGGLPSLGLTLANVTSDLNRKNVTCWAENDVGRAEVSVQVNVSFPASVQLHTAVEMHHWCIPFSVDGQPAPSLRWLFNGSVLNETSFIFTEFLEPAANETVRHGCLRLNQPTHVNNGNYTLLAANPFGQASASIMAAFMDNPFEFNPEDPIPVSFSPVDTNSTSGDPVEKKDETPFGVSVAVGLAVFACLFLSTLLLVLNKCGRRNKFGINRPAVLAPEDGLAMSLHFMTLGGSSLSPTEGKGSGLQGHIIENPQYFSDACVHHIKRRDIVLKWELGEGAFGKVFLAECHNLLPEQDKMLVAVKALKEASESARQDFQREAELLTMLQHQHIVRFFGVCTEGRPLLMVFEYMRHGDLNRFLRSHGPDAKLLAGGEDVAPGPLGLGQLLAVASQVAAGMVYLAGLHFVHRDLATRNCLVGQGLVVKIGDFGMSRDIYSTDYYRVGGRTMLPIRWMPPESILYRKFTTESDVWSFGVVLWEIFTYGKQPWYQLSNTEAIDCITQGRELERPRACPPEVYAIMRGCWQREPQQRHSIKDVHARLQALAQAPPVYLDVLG
Outline: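 TRKA (supplied as 2 nM 2× solution) was pre-reacted with compounds for 5 min at room temperature before a 4× ULight-TK peptide/ATP mix (400 nM/40 μM) started the 60-min dark reaction at 1% DMSO. After stop and 60-min detection, TR-FRET was read.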

Ba/F3 LMNA-NTRK1 cells = test: Assay for inhibiting the proliferation of Ba/F3 LMNA-NTRK1 cells (CCK-8); format: cell-based; conditions: Mus musculus, BaF3
Outline: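 Viability was read as absorbance at 450 nm following 1–2 h CCK-8 incubation at 37 °C, relative to control and blank wells.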

Sequence of c-MET kinase (P08581 25-1390): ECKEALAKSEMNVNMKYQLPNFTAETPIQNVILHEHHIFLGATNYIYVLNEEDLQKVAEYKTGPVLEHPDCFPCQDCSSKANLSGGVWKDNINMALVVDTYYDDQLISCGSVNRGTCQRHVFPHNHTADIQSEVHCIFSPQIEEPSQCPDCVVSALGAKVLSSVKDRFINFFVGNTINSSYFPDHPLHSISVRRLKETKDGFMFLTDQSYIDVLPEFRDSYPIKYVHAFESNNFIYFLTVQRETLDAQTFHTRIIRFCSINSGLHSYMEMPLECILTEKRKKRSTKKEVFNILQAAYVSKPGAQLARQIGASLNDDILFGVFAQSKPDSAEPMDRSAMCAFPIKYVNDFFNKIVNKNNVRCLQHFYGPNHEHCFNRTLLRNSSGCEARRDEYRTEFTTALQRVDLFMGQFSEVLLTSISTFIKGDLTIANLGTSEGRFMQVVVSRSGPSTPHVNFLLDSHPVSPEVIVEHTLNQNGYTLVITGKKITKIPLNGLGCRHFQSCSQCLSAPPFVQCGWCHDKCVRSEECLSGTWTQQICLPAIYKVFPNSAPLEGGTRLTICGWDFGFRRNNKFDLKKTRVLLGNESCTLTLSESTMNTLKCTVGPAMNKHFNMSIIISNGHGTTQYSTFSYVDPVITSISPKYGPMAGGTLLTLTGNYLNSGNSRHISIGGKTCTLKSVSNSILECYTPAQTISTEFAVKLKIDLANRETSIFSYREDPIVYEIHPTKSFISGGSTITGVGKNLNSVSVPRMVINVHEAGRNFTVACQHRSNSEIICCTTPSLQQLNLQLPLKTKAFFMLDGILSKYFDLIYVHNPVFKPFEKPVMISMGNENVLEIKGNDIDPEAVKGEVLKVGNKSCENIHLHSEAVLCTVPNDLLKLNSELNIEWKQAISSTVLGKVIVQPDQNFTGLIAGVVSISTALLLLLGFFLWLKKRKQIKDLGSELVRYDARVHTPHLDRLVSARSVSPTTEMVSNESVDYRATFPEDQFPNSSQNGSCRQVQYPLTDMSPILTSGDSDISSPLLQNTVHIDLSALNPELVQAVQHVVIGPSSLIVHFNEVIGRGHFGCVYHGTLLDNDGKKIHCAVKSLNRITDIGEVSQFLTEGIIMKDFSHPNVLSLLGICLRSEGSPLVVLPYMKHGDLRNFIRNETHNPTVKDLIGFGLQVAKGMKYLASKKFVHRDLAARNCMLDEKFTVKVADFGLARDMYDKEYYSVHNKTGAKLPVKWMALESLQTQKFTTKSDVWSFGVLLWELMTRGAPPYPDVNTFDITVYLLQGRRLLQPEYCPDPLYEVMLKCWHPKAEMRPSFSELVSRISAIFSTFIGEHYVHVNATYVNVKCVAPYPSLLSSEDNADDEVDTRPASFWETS

Row | Structure (SMILES) | IC50 (c-MET kinase) | IC50 (TRKA kinase) | IC50 (Ba/F3 LMNA-NTRK1 cells)
1 | CC(C)n1cc(C(=O)Nc2ccc(Oc3ccnc4cc(OCC(C)(C)O)c5c(c34)OCCO5)c(F)c2)c(=O)n(-c2ccc(F)cc2)c1=O [Example 122, N-(3-fluoro-4-((5-(2-hydroxy-2-methylpropoxy)-2,3-dihydro-[1,4]dioxino[2,3-f]quinolin-10-yl)oxy)phenyl)-3-(4-fluorophenyl)-1-isopropyl-2,4-dioxo-1,2,3,4-tetrahydropyrimidine-5-carboxamide] | ≤ 50 nM | < 50 nM | < 50 nM
2 | COc1cc2nccc(Oc3ccc(NC(=O)c4cn(C)c(=O)n(-c5ccc(F)cc5)c4=O)c(Cl)c3)c2c2c1OCCO2 [Example 125, N-(2-chloro-4-((5-methoxy-2,3-dihydro-[1,4]dioxino[2,3-f]quinolin-10-yl)oxy)phenyl)-3-(4-fluorophenyl)-1-methyl-2,4-dioxo-1,2,3,4-tetrahydropyrimidine-5-carboxamide] | 50 to 500 nM | < 50 nM | < 50 nM
3 | CCOc1ccn(-c2ccc(F)cc2)c(=O)c1C(=O)Nc1ccc(Oc2ccnc3cc(OC)c4c(c23)OCCO4)cc1Cl [Example 126, N-(2-chloro-4-((5-methoxy-2,3-dihydro-[1,4]dioxino[2,3-f]quinolin-10-yl)oxy)phenyl)-1-(4-fluorophenyl)-4-ethoxy-2-oxo-1,2-dihydropyridine-3-carboxamide] | ≤ 50 nM | < 50 nM | < 50 nM
4 | CCOc1cc2nccc(Oc3ccc(NC(=O)c4cccn(-c5ccc(F)cc5)c4=O)c(Cl)c3)c2c2c1OCCO2 [Example 127, N-(2-chloro-4-((5-ethoxy-2,3-dihydro-[1,4]dioxino[2,3-f]quinolin-10-yl)oxy)phenyl)-1-(4-fluorophenyl)-2-oxo-1,2-dihydropyridine-3-carboxamide] | ≤ 50 nM | < 50 nM | < 50 nM
5 | CCOc1cc2nccc(Oc3ccc(NC(=O)c4c(OC)ccn(-c5ccc(F)cc5)c4=O)c(Cl)c3)c2c2c1OCCO2 [Example 128, N-(2-chloro-4-((5-ethoxy-2,3-dihydro-[1,4]dioxino[2,3-f]quinolin-10-yl)oxy)phenyl)-1-(4-fluorophenyl)-4-methoxy-2-oxo-1,2-dihydropyridine-3-carboxamide] | ≤ 50 nM | < 50 nM | < 50 nM
6 | CCOc1cc2nccc(Oc3ccc(NC(=O)c4c(OCC)ccn(-c5ccc(F)cc5)c4=O)c(Cl)c3)c2c2c1OCCO2 [Example 130, N-(2-chloro-4-((5-ethoxy-2,3-dihydro-[1,4]dioxino[2,3-f]quinolin-10-yl)oxy)phenyl)-1-(4-fluorophenyl)-4-ethoxy-2-oxo-1,2-dihydropyridine-3-carboxamide] | ≤ 50 nM | < 50 nM | < 50 nM
7 | COc1ccn(-c2ccc(F)cc2)c(=O)c1C(=O)Nc1ccc(Oc2ccnc3cc(OCCCC#N)c4c(c23)OCCO4)cc1Cl [Example 132, N-(2-chloro-4-((5-(3-cyanopropoxy)-2,3-dihydro-[1,4]dioxino[2,3-f]quinolin-10-yl)oxy)phenyl)-1-(4-fluorophenyl)-4-methoxy-2-oxo-1,2-dihydropyridine-3-carboxamide] | ≤ 50 nM | < 50 nM | < 50 nM
8 | CCOc1ccn(-c2ccc(F)cc2)c(=O)c1C(=O)Nc1ccc(Oc2ccnc3cc(OCCCC#N)c4c(c23)OCCO4)cc1Cl [Example 134, N-(2-chloro-4-((5-(3-cyanopropoxy)-2,3-dihydro-[1,4]dioxino[2,3-f]quinolin-10-yl)oxy)phenyl)-1-(4-fluorophenyl)-4-ethoxy-2-oxo-1,2-dihydropyridine-3-carboxamide] | ≤ 50 nM | < 50 nM | < 50 nM
9 | O=C(Nc1ccc(Oc2ccnc3cc(OCCCN4CCCCC4)c4c(c23)OCCO4)cc1Cl)c1cccn(-c2ccc(F)cc2)c1=O [Example 135, N-(2-chloro-4-((5-((3-piperidin-1-yl)propoxy)-2,3-dihydro-[1,4]dioxino[2,3-f]quinolin-10-yl)oxy)phenyl)-1-(4-fluorophenyl)-2-oxo-1,2-dihydropyridine-3-carboxamide] | ≤ 50 nM | < 50 nM | < 50 nM
10 | CCOc1ccn(-c2ccc(F)cc2)c(=O)c1C(=O)Nc1ccc(Oc2ccnc3cc(OCCCN4CCCCC4)c4c(c23)OCCO4)cc1Cl [Example 138, N-(2-chloro-4-((5-((3-piperidin-1-yl)propoxy)-2,3-dihydro-[1,4]dioxino[2,3-f]quinolin-10-yl)oxy)phenyl)-1-(4-fluorophenyl)-4-ethoxy-2-oxo-1,2-dihydropyridine-3-carboxamide] | ≤ 50 nM | < 50 nM | < 50 nM
11 | COc1ccn(-c2ccc(F)cc2)c(=O)c1C(=O)Nc1ccc(Oc2ccnc3cc(OCC(C)(C)O)c4c(c23)OCCO4)cc1Cl [Example 140, N-(2-chloro-4-((5-(2-hydroxy-2-methylpropoxy)-2,3-dihydro-[1,4]dioxino[2,3-f]quinolin-10-yl)oxy)phenyl)-1-(4-fluorophenyl)-4-methoxy-2-oxo-1,2-dihydropyridine-3-carboxamide] | ≤ 50 nM | < 50 nM | < 50 nM
12 | CCOc1ccn(-c2ccc(F)cc2)c(=O)c1C(=O)Nc1ccc(Oc2ccnc3cc(OCC(C)(C)O)c4c(c23)OCCO4)cc1Cl [Example 142, N-(2-chloro-4-((5-(2-hydroxy-2-methylpropoxy)-2,3-dihydro-[1,4]dioxino[2,3-f]quinolin-10-yl)oxy)phenyl)-1-(4-fluorophenyl)-4-ethoxy-2-oxo-1,2-dihydropyridine-3-carboxamide] | ≤ 50 nM | < 50 nM | < 50 nM
13 | O=C(Nc1ccc(Oc2ccnc3cc(OCCCN4CCOCC4)c4c(c23)OCCO4)cc1Cl)c1cccn(-c2ccc(F)cc2)c1=O [Example 143, N-(2-chloro-4-((5-(3-morpholinopropoxy)-2,3-dihydro-[1,4]dioxino[2,3-f]quinolin-10-yl)oxy)phenyl)-1-(4-fluorophenyl)-2-oxo-1,2-dihydropyridine-3-carboxamide] | ≤ 50 nM | < 50 nM | < 50 nM
14 | COc1cc2nccc(Oc3ccc(NC(=O)c4cn(C)c(=O)n(-c5ccc(F)cc5)c4=O)cc3)c2c2c1OCCO2 [Example 145, N-(4-((5-methoxy-2,3-dihydro-[1,4]dioxino[2,3-f]quinolin-10-yl)oxy)phenyl)-3-(4-fluorophenyl)-1-methyl-2,4-dioxo-1,2,3,4-tetrahydropyrimidine-5-carboxamide] | ≤ 50 nM | < 50 nM | < 50 nM

More lines, now with the values ahead:

Row | IC50 (c-MET kinase) | IC50 (TRKA kinase) | IC50 (Ba/F3 LMNA-NTRK1 cells) | Structure (SMILES)
15 | ≤ 50 nM | < 50 nM | < 50 nM | CCOc1cc2nccc(Oc3ccc(NC(=O)c4cn(C)c(=O)n(-c5ccc(F)cc5)c4=O)c(Cl)c3)c2c2c1OCCO2 [Example 129, N-(2-chloro-4-((5-ethoxy-2,3-dihydro-[1,4]dioxino[2,3-f]quinolin-10-yl)oxy)phenyl)-3-(4-fluorophenyl)-1-methyl-2,4-dioxo-1,2,3,4-tetrahydropyrimidine-5-carboxamide]
16 | ≤ 50 nM | < 50 nM | < 50 nM | COc1ccn(-c2ccc(F)cc2)c(=O)c1C(=O)Nc1ccc(Oc2ccnc3cc(OCCCN4CCCCC4)c4c(c23)OCCO4)cc1Cl [Example 136, N-(2-chloro-4-((5-((3-piperidin-1-yl)propoxy)-2,3-dihydro-[1,4]dioxino[2,3-f]quinolin-10-yl)oxy)phenyl)-1-(4-fluorophenyl)-4-methoxy-2-oxo-1,2-dihydropyridine-3-carboxamide]
17 | ≤ 50 nM | < 50 nM | < 50 nM | Cn1cc(C(=O)Nc2ccc(Oc3ccnc4cc(OCCCN5CCCCC5)c5c(c34)OCCO5)cc2Cl)c(=O)n(-c2ccc(F)cc2)c1=O [Example 137, N-(2-chloro-4-((5-((3-piperidin-1-yl)propoxy)-2,3-dihydro-[1,4]dioxino[2,3-f]quinolin-10-yl)oxy)phenyl)-3-(4-fluorophenyl)-1-methyl-2,4-dioxo-1,2,3,4-tetrahydropyrimidine-5-carboxamide]
18 | ≤ 50 nM | < 50 nM | < 50 nM | CC(C)(O)COc1cc2nccc(Oc3ccc(NC(=O)c4cccn(-c5ccc(F)cc5)c4=O)c(Cl)c3)c2c2c1OCCO2 [Example 139, N-(2-chloro-4-((5-(2-hydroxy-2-methylpropoxy)-2,3-dihydro-[1,4]dioxino[2,3-f]quinolin-10-yl)oxy)phenyl)-1-(4-fluorophenyl)-2-oxo-1,2-dihydropyridine-3-carboxamide]
19 | ≤ 50 nM | < 50 nM | < 50 nM | Cn1cc(C(=O)Nc2ccc(Oc3ccnc4cc(OCC(C)(C)O)c5c(c34)OCCO5)cc2Cl)c(=O)n(-c2ccc(F)cc2)c1=O [Example 141, N-(2-chloro-4-((5-(2-hydroxy-2-methylpropoxy)-2,3-dihydro-[1,4]dioxino[2,3-f]quinolin-10-yl)oxy)phenyl)-3-(4-fluorophenyl)-1-methyl-2,4-dioxo-1,2,3,4-tetrahydropyrimidine-5-carboxamide]
20 | ≤ 50 nM | < 50 nM | < 50 nM | CCn1cc(C(=O)Nc2ccc(Oc3ccnc4cc(OC)c5c(c34)OCCO5)cc2)c(=O)n(-c2ccc(F)cc2)c1=O [Example 146, N-(4-((5-methoxy-2,3-dihydro-[1,4]dioxino[2,3-f]quinolin-10-yl)oxy)phenyl)-3-(4-fluorophenyl)-1-ethyl-2,4-dioxo-1,2,3,4-tetrahydropyrimidine-5-carboxamide]
